Measured values as given in patent publication US20260315431A1, “NANOMATERIAL ENCAPSULATED BIOFILM INHIBITORS FOR DENTAL CARIES TREATMENT” (THE UAB RESEARCH FOUNDATION, priority 2023, published 2026).
Values after ≈ are worked out from the molar mass of the structure shown. “Also recorded” adds a separate entry of the source.

Columns and labels:
[1] = Solubility in water containing 1% DMSO (UV spectroscopy); format: physicochemical; details: organic solvent or mixture; water containing 1% DMSO
Experimental: Solubility of MA1-6 and HA2-6 were determined as reported^46 (Table 1).
General considerations. ^1H-NMR and ^13C-NMR spectra were recorded on Bruker Avance Neo 400 and Avance II 700 spectrometers using TMS or appropriate solvent signals as internal standard. The chemical shift values are given in parts per million (ppm) relative to the internal standard used and the coupling constants (J) are given in hertz (Hz). High resolution mass spectra (HRMS) were recorded using Waters AutoSpec-Ultima™ NT magnetic sector mass spectrometer with Electron Impact (EI) Ionization source. The mass analyzer is an electric-magnetic-electric (EBE) sector (a double focusing sector). Anhydrous solvents used for reactions were purchased in Sure-Seal™ bottles from Aldrich chemical company. Other chemical reagents were purchased from Aldrich or Fisher chemical companies and used as received. Reactions were monitored with thin layer chromatography (TLC), which was done on silica gel plates with fluorescent indicator (Silicycle, silica gel, UV254, 25 μm plates). The TLC spots were observed under UV light with the wavelengths 254 nm and 365 nm. The reaction mixtures were purified by column chromatography using Si gel (32-63 μm) from Dynamic Absorbent, Inc. Melting points were determined on a Mel-Temp II melting point apparatus and are uncorrected. All tested compounds have ≥95% purity as determined by HPLC. HPLC traces were obtained using Shimadzu SPD-M20A. Solubility of compounds were determined by UV-spectroscopy method using Agilent Cary 60 UV-Vis spectrophotometer. HPLC analysis of the final compounds were conducted using Kinetex 5 μm C18 100 Å, LC Column 150×4.6 mm, compound=3 mM, 20 μL injection, solvent: mobile phase buffer, Conditions: 60% MeCN/40% H2O/0.1% Formic acid (isocratic), HPLC method 0-10 min, Signals were analyzed using a 254 nm UV detector. A chromatogram of Mobile Phase Buffer (20 μL) was obtained for comparison.

[2] = system: S. gordonii DL1; assay: Commensal biofilm inhibition, S. gordonii DL1 (crystal violet, OD562); format: cell-based, Streptococcus gordonii; details: for S. gordonii biofilm: 25 μM
Experimental: (§1) The bacterial strains, S. mutans UA159, S. gordonii DL1, and S. sanguinis SK36 were inoculated statically at 37° C. under 5% CO2 in Todd Hewitt Broth (THB) for 24 h. The cultures were then diluted with fresh THB (1:5) and reinoculated until optical density at 470 nm (OD470) reached 1. The optical density was read using BioTek 800TS microplate reader at 470 nm for bacterial growth and 562 nm for biofilm stained with crystal violet. Data was plotted in Graphpad Prism9.
Biofilm inhibition assays. Biofilm inhibition assays were performed in polystyrene microtiter 96 well plates. Stock solutions were prepared in chemically defined medium (CDM, JRH Biosciences, Lenexa, KS) with 2% sucrose, 1% bacteria cultures and various concentrations of the small molecule inhibitors to examine their activity against biofilm formation as described^69, 70. These stocks were assayed in 96 well plates in triplicate and incubated at 37° C. and 5% CO2 for 16 h. After reading optical density for bacterial growth, the plate was gently washed with water, dried, and stained with crystal violet, and then gently rinsed again with deionized water leaving the stained biofilm at the bottoms of the wells. Biofilms was dissolved in 200 μL of 30% acetic acid and absorbance at 562 nm was used read to determine biofilm biomass. Each assay was carried out at least in triplicate. Biofilm inhibitory concentration (IC50) of the compounds was determined by serial dilutions.
All bacterial strains (S. mutans UA159, S. gordonii DL1, and S. sanguinis SK36) were inoculated statically at 37° C. under 5% CO2 environment in Todd Hewitt Broth (THB) for 24 h^[61]. […] The optical density was read using BioTek 800 TS absorbance reader at 470 nm for bacterial growth and 562 nm for biofilm stained with crystal violet. […]
Biofilm inhibition assays were performed in polystyrene microtiter 96-well plates. […] After reading optical density for bacterial growth, the plate was washed, dried, and stained with 0.1% crystal violet which was again rinsed well with deionized water leaving the stained biofilm at the bottoms of the wells. […]

[3] = system: S. gordonii DL1; assay: Planktonic growth, S. gordonii DL1 (OD470); format: cell-based, Streptococcus gordonii
Experimental: as §1
(§2) S. mutans, S. gordonii, and S. sanguinis growth assays. Effects of compounds on S. mutans and commensal bacterial growth were evaluated using the growth assay as described^69. S. mutans UA159, S. gordonii DL1, S. sanguinis SK36, cultures were grown for 24 h under 5% CO2 at 37° C. These cultures were then reinoculated with fresh THB (1:5) until OD470=1 when the bacteria were ready to be used. Different concentrations of the inhibitor were assayed in chemically defined media (CDM) with 1% of the bacteria, 1% sucrose and 1% DMSO in 96 well plates. The 96 well plates were incubated under 5% CO2 at 37° C. for 16 h. Growth of the bacteria was read after 16 h at OD470. Each assay was carried out at least in triplicate.
All bacterial strains (S. mutans UA159, S. gordonii DL1, and S. sanguinis SK36) were inoculated statically at 37° C. under 5% CO2 environment in Todd Hewitt Broth (THB) for 24 h^[61]. The cultures were then diluted with fresh THB (1:5) and reinoculated until the optical density at 470 nm reaches 1. The optical density was read using BioTek 800 TS absorbance reader at 470 nm for bacterial growth and 562 nm for biofilm stained with crystal violet. Data was plotted in Prism 10.0.2.
as §2, with “Effects” for “S. mutans, S. gordonii, and S. sanguinis growth assays. Effects”, “PEHA5, PEHA6, HA5 or HA6” for “compounds”, “described^[62].” for “described^69.”, “PEHA5, PEHA6, HA5 or HA6” for “inhibitor”, “CDM” for “chemically defined media (CDM)”

SMILES | solubility [1] [µg/mL] | S. gordonii biofilm [2] | growth inhibition of S. gordonii ([3]; 25 μM and 50 μM) | growth of S. gordonii ([3]; at biofilm inhibiting doses) | inhibition at 25 µM ([2]; Streptococcus gordonii, DL1) [%] | planktonic growth of S. gordonii ([3]; 25 μM) | growth of S. gordonii ([3]; 50 μM and 100 μM (100 μM)) | dose without growth inhibition of commensals (100 μM) relative to biofilm IC50 ([3]; DL1) [fold]
O=C1/C(=C/c2cc(O)c(O)c(O)c2)Oc2ccccc21 [HA6, 2-[(3′,4′,5′-Trihydroxyphenyl)methylidene]-2,3-dihydro-1-benzofuran-3-one] | 90.8 (≈ 336 µM) | did not significantly reduce the biofilms | about 10% | without affecting the growth |  |  |  | 
O=C1/C(=C/c2cc(O)c(O)cc2O)Oc2ccccc21 [HA5, 2-[(2′,4′,5′-Trihydroxyphenyl)methylidene]-2,3-dihydro-1-benzofuran-3-one] | 120 (≈ 444 µM) | minimal |  | without affecting the growth | ~20 | did not affect the planktonic growth | did not inhibit the growth; also recorded: does not inhibit the growth | 14
